Experiment: distribution coefficient (log P), measured between n-octanol and water
Assay type: physicochemical
Settings: experimental value, read-out: logP Observed
Description: On the other hand, the measured value of the distribution coefficient is calculated by the following equation using a concentration of a medicinal ingredient dissolved in each of two phases of water and n-octanol, which is obtained by a conventional quantitative method such as absorption spectrophotometry, gas chromatography or liquid chromatography:
Log P=Log [(concentration of the medicinal ingredient in n-octanol phase)/(concentration of the medicinal ingredient in water phase)

Row | logP | SMILES
1 | -2.15 | O=C1O[C@H]([C@@H](O)CO)C(O)=C1O [ascorbic acid]
2 | 1.39 | CCOc1ccccc1C(N)=O [ethenzamide]
